Columns and labels:
τ protein = τ protein phosphorylation induced by Aβ1-42 in rat hippocampus section, Western blotting; assay type: cell-based; settings: Aβ1-42 1 μM for 3 hr, DCP-LA 100 nM, FIG. 5
Method: (§1) A rat hippocampus section (male Wister rat, 6-week-old, 400 μm) was incubated in an artificial cerebrospinal fluid (117 mM NaCl, 3.6 mM KCl, 1.2 mM NaH2PO4, 1.2 mM MgCl2, 2.5 mM CaCl2, 25 mM NaHCO3, and 11.5 mM glucose) oxygenated with 95% O2 and 5% CO2, in the presence or absence of DCP-LA (100 nM) at 34° C. for 3 min. In another experiment set, the section was incubated with Aβ1-42 (1 μM) for 3 hr in the presence or absence of DCP-LA (100 nM). After incubation, the section was homogenized by sonication in an ice-cooled cell lysis buffer containing 1% (v/v) protease inhibitor cocktail and 1% (v/v) phosphatase inhibitor cocktail, and the homogenate was centrifuged (3,000 rpm, 5 min, 4° C.). The protein concentration of the supernatant was measured using BCA protein assay kit (Thermo Fisher Scientific, Rockford, Ill., USA). The protein was separated by SDS-polyacrylamide gel electrophoresis (SDS-PAGE), and transferred onto polyvinylidene difluoride membranes. […]
(§2) After washing, the membranes were reacted with horseradish peroxidase-conjugated goat anti-mouse IgG antibody or goat anti-rabbit IgG antibody. The immunoreactivity was detected using ECL kit (GE Healthcare, Piscataway, N.J., USA), and visualized using a chemical luminescence detection system (chemiluminescence detection system; GE Healthcare).

Akt = Akt activation in rat hippocampus section, Western blotting; assay type: cell-based; settings: 100 nM, 3 min, FIG. 3
Method: as §1, §2

GSK-3β = GSK-3β phosphorylation in rat hippocampus section, Western blotting; assay type: cell-based; settings: 100 nM, 3 min, FIG. 4
Method: as §1, §2

Human PTP1B = biological target: T1, Human PTP1B (Homo sapiens, UniProt P18031); test: Assay of PTP1B activity under cell-free conditions (p-NPP dephosphorylation); assay type: biochemical; settings: DCP-LA 1-100 μM, p-NPP 10 mM, FIG. 1
T1 construct: made in house; host or cells: E. coli BL21 (DE3)
T1 sequence (P18031 1-435): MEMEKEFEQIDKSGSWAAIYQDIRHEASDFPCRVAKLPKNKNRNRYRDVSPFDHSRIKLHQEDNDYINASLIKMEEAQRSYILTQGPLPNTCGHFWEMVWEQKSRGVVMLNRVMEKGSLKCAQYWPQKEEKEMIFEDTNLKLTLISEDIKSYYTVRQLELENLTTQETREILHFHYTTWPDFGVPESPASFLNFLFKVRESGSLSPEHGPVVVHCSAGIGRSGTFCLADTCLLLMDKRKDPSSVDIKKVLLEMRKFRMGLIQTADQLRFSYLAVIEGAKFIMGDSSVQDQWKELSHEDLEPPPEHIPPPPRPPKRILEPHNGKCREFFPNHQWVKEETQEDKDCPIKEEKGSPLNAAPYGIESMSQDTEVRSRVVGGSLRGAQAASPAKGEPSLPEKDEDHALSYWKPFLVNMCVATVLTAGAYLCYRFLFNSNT
Method: Protein tyrosine phosphatase was measured under cell-free conditions by a method partially modified from the methods described in previous reports (Baba Y, et al. J Am Chem Soc 2003; 125; 9740-9749; Rice R L, et al. Biochemistry 1997; 36: 15965-15974). Human PTP1B was cloned to a pGEX-6P-3 vector having a GST tag at the NH2 terminus, and expressed in competent E. coli BL21 (DE3) suitable for transformation and protein expression. GST fusion PTP1B was affinity-purified using glutathione sepharose 4B (GE Healthcare Bio-Science KK, Tokyo, Japan). It was reacted with p-nitrophenylphosphate (p-NPP) (Sigma, St. Louis, Mo., USA) as a substrate and PTP1B activity was measured. The enzyme was pre-incubated in a reaction medium [50 mM HEPES, 1 mM EDTA, 50 mM NaCl, 1 mM dithiothreitol, pH 7.2] at 37° C. for 30 min in the presence or absence of DCP-LA at a given concentration (1-100 μM) and with or without addition of Na3VO4 which is a PTP1B inhibitor. Then, p-NPP (10 mM) was added to the reaction medium, and the mixture was incubated for 60 min. The reaction was discontinued by the addition of 0.1N NaOH. Dephosphorylated p-NPP, i.e., p-NP, was quantified at an absorbance of 405 nm by using SpectraMax PLUS384 (Molecular Devices, Sunnyvale, Calif., USA).

5XFAD mouse = test: Water maze test in 5XFAD mouse; assay type: in vivo; settings: oral, 30 min before water maze test, daily, DCP-LA 1 mg/kg, galanthamine 2.5 mg/kg, FIG. 6
Source text: XFAD transgenic mouse is an animal model of Alzheimer's disease (AD), and contains five mutations of familial Alzheimer's disease (FAD) [Swedish, Florida and London mutations of human amyloid precursor protein (APP), and M146L and L286V mutations of presenilin (PS); Oakley H et al., J. Neurosci. 2006; 26: 10129-10140]. In 5XFAD mouse, Swedish mutation increases production of total amyloid β peptide (Aβ), and the remaining mutations particularly promote production of Aβ1-42.
5XFAD mouse was purchased from The Jackson Laboratory (Bar Harbor, Me., USA), and maintained by crossing with heterozygous transgenic mouse with B6/SJLF1 breeding stock. Non-transgenic wild-type litter-mate was used as a control. All experiments were performed at the age of 5.5-6.5 months.
A circular plastic water tank (diameter 90 cm, depth 36 cm) was used. The inside of the water tank was completely painted in white, and water containing White India ink was filled up to 20 cm from the bottom (22-25° C.). A platform (diameter 11 cm) painted in white was placed in water such that it was 1 cm below the water surface. The water tank was placed in a test room, and several marks seen by the mouse from the water tank were put thereon. During the test, the position of the marks was not changed. A platform was placed a predetermined position from the equal distance from the center and the end of the water tank, namely, center of one quadrant. At one of the randomly selected 3 points, the mouse was released facing the wall of the water tank, and the time necessary for evacuating on the platform (acquisition latency) was measured. When smoothly evacuated, the mouse was left on the platform for 10 seconds. […] The test was performed twice a day, and the second test was started at 30 seconds after the first test. The test was continuously performed for 8 days, and the mean (±SEM) of acquisition latency of continuous 2 days until the mouse reached the platform was calculated. After 7 days, the platform was removed and the time necessary for reaching the place where the platform was located (retention latency) was measured.
DCP-LA and galanthamine were dissolved in polyethylene glycol (PEG). DCP-LA, galanthamine and PEG were administered with an oral gavage needle 30 min before the water maze test.

human recombinant PKCε = biological target: T2, human recombinant PKCε (Homo sapiens, UniProt Q02156); test: GSK-3β assay under cell-free conditions with PKCε; assay type: biochemical; settings: FIG. 7
T2 construct: His; purchased Calbiochem
T2 sequence (Q02156 1-737): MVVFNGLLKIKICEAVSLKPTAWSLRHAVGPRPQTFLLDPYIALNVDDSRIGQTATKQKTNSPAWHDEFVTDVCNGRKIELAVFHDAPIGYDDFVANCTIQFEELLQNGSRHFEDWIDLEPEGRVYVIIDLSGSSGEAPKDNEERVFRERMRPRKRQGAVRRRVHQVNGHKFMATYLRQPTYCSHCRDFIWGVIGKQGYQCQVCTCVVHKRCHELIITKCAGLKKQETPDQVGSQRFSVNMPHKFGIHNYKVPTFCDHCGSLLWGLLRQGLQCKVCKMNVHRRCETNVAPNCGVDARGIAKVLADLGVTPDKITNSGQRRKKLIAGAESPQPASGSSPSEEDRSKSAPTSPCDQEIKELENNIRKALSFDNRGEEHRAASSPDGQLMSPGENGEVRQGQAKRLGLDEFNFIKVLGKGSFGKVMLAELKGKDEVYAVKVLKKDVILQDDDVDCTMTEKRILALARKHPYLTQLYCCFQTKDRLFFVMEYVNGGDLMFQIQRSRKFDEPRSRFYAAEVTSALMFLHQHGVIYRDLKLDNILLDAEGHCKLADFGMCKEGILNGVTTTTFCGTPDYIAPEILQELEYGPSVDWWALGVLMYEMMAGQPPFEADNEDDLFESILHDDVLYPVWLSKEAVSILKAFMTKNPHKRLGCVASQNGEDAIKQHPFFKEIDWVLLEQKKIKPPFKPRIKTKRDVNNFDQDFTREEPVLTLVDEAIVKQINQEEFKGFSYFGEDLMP
Method: Human recombinant GSK-3β (Sigma, St. Louis, Mo., USA) was reacted with His-tagged human recombinant PKCε (Calbiochem, San Diego, Calif., USA) under cell-free conditions in the presence or absence of a given concentration (1-100 μM) of DCP-LA, and with or without addition of GF109203X, in a culture medium containing 20 mM Tris-HCl (pH 7.5), 5 mM Mg-acetate, 12.5 mM glycerol 2-phosphate and 250 μM ATP at 30° C. for 20 min. The protein was separated by SDS-polyacrylamide gel electrophoresis (SDS-PAGE), and transferred on a polyvinylidene difluoride membrane. The blotting membrane was blocked with TBS-T [150 mM NaCl, 0.1% (v/v) Tween20 and 20 mM Tris, pH 7.5] containing 5% (w/v) BSA, and sequentially reacted with anti-serine 9 phosphorylated GSK-3β antibody (Cell Signaling Technology, Inc., Danvers, Mass., USA) or anti-GSK-3β antibody (Cell Signaling Technology, Inc., Danvers, Mass., USA). After washing, the membrane was reacted with horseradish peroxidase conjugated goat anti-mouse IgG antibody or goat anti-rabbit IgG antibody. The immunoreactivity was detected using ECL kit (GE Healthcare, Piscataway, N.J., USA), and visualized using a chemical luminescence detection system (chemiluminescence detection system; GE Healthcare).

SMILES	Ser202/Thr205 phosphorylation of τ protein induced by Aβ1-42 relative to total τ protein (τ protein)	Akt activation (phosphorylation of Thr308 and Ser473 relative to total Akt) (Akt)	Ser9 phosphorylation of GSK-3β relative to total GSK-3β (GSK-3β)	PTP1B inhibition (phosphatase activity, percentage of control) (Human PTP1B)	acquisition latency (5XFAD mouse)	retention latency (5XFAD mouse)	Ser9 phosphorylation of GSK-3β by PKCε (human recombinant PKCε; PKCε 1 μg/ml, DCP-LA 1-100 μM)	suppression of DCP-LA/PKCε-induced Ser9 phosphorylation of GSK-3β (human recombinant PKCε; GF109203X 100 nM in the presence of DCP-LA and PKCε)
CCCCCC1CC1CC1CC1CCCCCCCC(=O)O (stereo not shown) [DCP-LA, 8-[2-(2-Pentyl-cyclopropylmethyl)-cyclopropyl]-octanoic acid]	suppresses phosphorylation of τ protein induced by Aβ1-42	has an action to activate Akt	phosphorylates (inactivates) GSK-3β	inhibits PTP1B in a concentration-dependent manner	improved extension of both latencies to nearly normal levels	improved extension of both latencies to nearly normal levels	phosphorylates (inactivates) GSK-3β in the presence of PKCε	–
CN(C)CCCn1cc(C2=C(c3c[nH]c4ccccc34)C(=O)NC2=O)c2ccccc21 [GF109203X, reference compound]	–	–	–	–	–	–	–	phosphorylation is suppressed by GF109203X
COc1ccc2c3c1O[C@H]1C[C@@H](O)C=C[C@@]31CCN(C)C2 [galanthamine, reference compound]	–	–	–	–	showed no effect	showed no effect	–	–
